Source: patent US20250163104A1, “MACROCYCLIC IMMUNOMODULATORS” (priority 2021, published 2025)
Where a SMILES comes first, the peptide text is derived from it. Bridges are numbered along the chain shown (N, C = ends). [ ]: non-standard residue; d: D form. The star is where a group is joined. Phe(4-COOH) = N[C@@H](Cc1ccc(C(=O)O)cc1)C(=O)O; Bip = N[C@@H](Cc1ccc(-c2ccccc2)cc1)C(=O)O; 3Pal = N[C@@H](Cc1cccnc1)C(=O)O; 4Pal = N[C@@H](Cc1ccncc1)C(=O)O; Carboxymethyl = O=C(O)C*; Orn = NCCC[C@H](N)C(=O)O; Dab = NCC[C@H](N)C(=O)O; Dap = NC[C@H](N)C(=O)O

target: T1, human PD-1 / PD-L1-Ig binding on Jurkat cell line over-expressing human PD-1 (Jurkat-PD-1) (Homo sapiens, UniProt Q15116); assay: Jurkat-PD-1 Cell Binding High-Content Screening Assay (CBA); assay type: cell-based; details: Jurkat-PD-1 cells, PE-labeled PD-L1-Ig 20 nM final; read-out: Jurkat HPD1_PDL1 IC50
T1 construct: expressed in transfected cells; host or cells: Jurkat
T1 sequence (Q15116 25-288): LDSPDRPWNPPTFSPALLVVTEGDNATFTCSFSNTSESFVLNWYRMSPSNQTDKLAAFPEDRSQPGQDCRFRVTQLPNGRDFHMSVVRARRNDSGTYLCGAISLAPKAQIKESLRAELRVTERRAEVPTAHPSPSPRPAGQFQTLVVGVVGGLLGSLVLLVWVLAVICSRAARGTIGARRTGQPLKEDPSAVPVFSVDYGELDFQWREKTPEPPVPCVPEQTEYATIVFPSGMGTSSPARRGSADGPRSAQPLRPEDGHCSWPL
Procedure, shortened: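 Read-out: high-content imaging of PE-tagged PD-L1-Ig bound to Jurkat cells overexpressing human PD-1, after fixation with 4% paraformaldehyde and Hoechst 33342 nuclear staining. Ligand was used at 20 nM final for 1 hour, after a 2 h compound exposure at 37° C in serum-containing DMEM.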

| SMILES | IC50 |
| --- | --- |
| CC(C)C[C@@H]1NC(=O)[C@H](CCN)NC(=O)[C@@H](CC(C)C)NC(=O)[C@H](CCCN)NC(=O)[C@H](C(C)C)NC(=O)[C@H](Cc2ccc(-c3ccccc3)cc2)NC(=O)[C@H](C(C)C)NC(=O)[C@H](Cc2c[nH]c3ccccc23)NC(=O)[C@H](CC(=O)O)NC(=O)[C@H](Cc2ccc(C(=O)O)cc2)NC(=O)[C@H](CN)NC(=O)CSC[C@@H](C(=O)N[C@@H](C)C(N)=O)NC(=O)[C@H]([C@@H](C)O)NC(=O)[C@H](C(C)C)NC1=O [Compound 1046] ({CH2CO}-[Dap][Phe(4-COOH)]DWV[Bip]V[Orn][dL][Dab]LVTCA-NH2; thioether N-14) | 14 nM |
| CC(C)C[C@@H]1NC(=O)[C@H](CCN)NC(=O)[C@@H](CC(C)C)NC(=O)[C@H](CCCN)NC(=O)[C@H](C(C)C)NC(=O)[C@H](Cc2ccc(-c3ccccc3)cc2)NC(=O)[C@H](C(C)C)NC(=O)[C@H](Cc2c[nH]c3ccccc23)NC(=O)[C@H](CC(=O)O)NC(=O)[C@H](Cc2ccc(O)cc2)NC(=O)[C@H](Cc2ccncc2)NC(=O)CSC[C@@H](C(=O)N[C@@H](C)C(N)=O)NC(=O)[C@H]([C@@H](C)O)NC(=O)[C@H](C(C)C)NC1=O [Compound 1047] ({CH2CO}-[4Pal]YDWV[Bip]V[Orn][dL][Dab]LVTCA-NH2; thioether N-14) | 6.7 nM |
| CC(C)C[C@@H]1NC(=O)[C@H](CCN)NC(=O)[C@@H](CC(C)C)NC(=O)[C@H](CCCN)NC(=O)[C@H](C(C)C)NC(=O)[C@H](Cc2ccc(-c3ccccc3)cc2)NC(=O)[C@H](C(C)C)NC(=O)[C@H](Cc2c[nH]c3ccccc23)NC(=O)[C@H](CC(=O)O)NC(=O)[C@H](Cc2ccc(OCC(=O)O)cc2)NC(=O)[C@H](CN)NC(=O)CSC[C@@H](C(=O)N[C@@H](C)C(N)=O)NC(=O)[C@H]([C@@H](C)O)NC(=O)[C@H](C(C)C)NC1=O [Compound 1048] ({CH2CO}-[Dap]Y(Carboxymethyl)DWV[Bip]V[Orn][dL][Dab]LVTCA-NH2; thioether N-14) | 13.7 nM |
| CC(C)C[C@@H]1NC(=O)[C@H](CCN)NC(=O)[C@@H](CC(C)C)NC(=O)[C@H](CCCN)NC(=O)[C@H](C(C)C)NC(=O)[C@H](Cc2ccc(-c3ccccc3)cc2)NC(=O)[C@H](C(C)C)NC(=O)[C@H](Cc2c[nH]c3ccccc23)NC(=O)[C@H](CC(=O)O)NC(=O)[C@H](Cc2ccc(C(=O)O)cc2)NC(=O)[C@H](Cc2cccnc2)NC(=O)CSC[C@@H](C(=O)N[C@@H](C)C(N)=O)NC(=O)[C@H]([C@@H](C)O)NC(=O)[C@H](C(C)C)NC1=O [Compound 1049] ({CH2CO}-[3Pal][Phe(4-COOH)]DWV[Bip]V[Orn][dL][Dab]LVTCA-NH2; thioether N-14) | 7.2 nM |
| CC(C)C[C@@H]1NC(=O)[C@H](CCN)NC(=O)[C@@H](CC(C)C)NC(=O)[C@H](CCCN)NC(=O)[C@H](C(C)C)NC(=O)[C@H](Cc2ccc(-c3ccccc3)cc2)NC(=O)[C@H](C(C)C)NC(=O)[C@H](Cc2c[nH]c3ccccc23)NC(=O)[C@H](CC(=O)O)NC(=O)[C@H](Cc2ccc(O)cc2)NC(=O)[C@H](Cc2cccnc2)NC(=O)CSC[C@@H](C(=O)N[C@@H](C)C(N)=O)NC(=O)[C@H]([C@@H](C)O)NC(=O)[C@H](C(C)C)NC1=O [Compound 1050] ({CH2CO}-[3Pal]YDWV[Bip]V[Orn][dL][Dab]LVTCA-NH2; thioether N-14) | 9.9 nM |
| CC(C)C[C@@H]1NC(=O)[C@H](CCN)NC(=O)[C@@H](CC(C)C)NC(=O)[C@H](CCCN)NC(=O)[C@H](C(C)C)NC(=O)[C@H](Cc2ccc(-c3ccccc3)cc2)NC(=O)[C@H](C(C)C)NC(=O)[C@H](Cc2c[nH]c3ccccc23)NC(=O)[C@H](CC(=O)O)NC(=O)[C@H](Cc2ccc(OCC(=O)O)cc2)NC(=O)[C@H](Cc2ccncc2)NC(=O)CSC[C@@H](C(=O)N[C@@H](C)C(N)=O)NC(=O)[C@H]([C@@H](C)O)NC(=O)[C@H](C(C)C)NC1=O [Compound 1051] ({CH2CO}-[4Pal]Y(Carboxymethyl)DWV[Bip]V[Orn][dL][Dab]LVTCA-NH2; thioether N-14) | 5.2 nM |
| CC[C@H](C)[C@@H]1NC(=O)[C@H](Cc2ccc(-c3ccccc3)cc2)NC(=O)[C@H](C(C)C)NC(=O)[C@H](Cc2c[nH]c3ccccc23)NC(=O)[C@H](CC(=O)O)NC(=O)[C@H](Cc2ccc(C(=O)O)cc2)NC(=O)[C@H](CN)NC(=O)CSC[C@@H](C(=O)N[C@@H](C)C(N)=O)NC(=O)[C@H]([C@@H](C)O)NC(=O)[C@H](C(C)C)NC(=O)[C@H](CC(C)C)NC(=O)[C@H](CCN)NC(=O)[C@@H](CC(C)C)NC(=O)[C@H](CCCN)NC1=O [Compound 1052] ({CH2CO}-[Dap][Phe(4-COOH)]DWV[Bip]I[Orn][dL][Dab]LVTCA-NH2; thioether N-14) | 11.8 nM |
| CC[C@H](C)[C@@H]1NC(=O)[C@H](Cc2ccc(-c3ccccc3)cc2)NC(=O)[C@H](C(C)C)NC(=O)[C@H](Cc2c[nH]c3ccccc23)NC(=O)[C@H](CC(=O)O)NC(=O)[C@H](Cc2ccc(O)cc2)NC(=O)[C@H](Cc2ccncc2)NC(=O)CSC[C@@H](C(=O)N[C@@H](C)C(N)=O)NC(=O)[C@H]([C@@H](C)O)NC(=O)[C@H](C(C)C)NC(=O)[C@H](CC(C)C)NC(=O)[C@H](CCN)NC(=O)[C@@H](CC(C)C)NC(=O)[C@H](CCCN)NC1=O [Compound 1053] ({CH2CO}-[4Pal]YDWV[Bip]I[Orn][dL][Dab]LVTCA-NH2; thioether N-14) | 13.7 nM |
| CC[C@H](C)[C@@H]1NC(=O)[C@H](Cc2ccc(-c3ccccc3)cc2)NC(=O)[C@H](C(C)C)NC(=O)[C@H](Cc2c[nH]c3ccccc23)NC(=O)[C@H](CC(=O)O)NC(=O)[C@H](Cc2ccc(OCC(=O)O)cc2)NC(=O)[C@H](CN)NC(=O)CSC[C@@H](C(=O)N[C@@H](C)C(N)=O)NC(=O)[C@H]([C@@H](C)O)NC(=O)[C@H](C(C)C)NC(=O)[C@H](CC(C)C)NC(=O)[C@H](CCN)NC(=O)[C@@H](CC(C)C)NC(=O)[C@H](CCCN)NC1=O [Compound 1054] ({CH2CO}-[Dap]Y(Carboxymethyl)DWV[Bip]I[Orn][dL][Dab]LVTCA-NH2; thioether N-14) | 9 nM |
| CC[C@H](C)[C@@H]1NC(=O)[C@H](Cc2ccc(-c3ccccc3)cc2)NC(=O)[C@H](C(C)C)NC(=O)[C@H](Cc2c[nH]c3ccccc23)NC(=O)[C@H](CC(=O)O)NC(=O)[C@H](Cc2ccc(C(=O)O)cc2)NC(=O)[C@H](Cc2ccncc2)NC(=O)CSC[C@@H](C(=O)N[C@@H](C)C(N)=O)NC(=O)[C@H]([C@@H](C)O)NC(=O)[C@H](C(C)C)NC(=O)[C@H](CC(C)C)NC(=O)[C@H](CCN)NC(=O)[C@@H](CC(C)C)NC(=O)[C@H](CCCN)NC1=O [Compound 1055] ({CH2CO}-[4Pal][Phe(4-COOH)]DWV[Bip]I[Orn][dL][Dab]LVTCA-NH2; thioether N-14) | 5.8 nM |
| CC[C@H](C)[C@@H]1NC(=O)[C@H](Cc2ccc(-c3ccccc3)cc2)NC(=O)[C@H](C(C)C)NC(=O)[C@H](Cc2c[nH]c3ccccc23)NC(=O)[C@H](CC(=O)O)NC(=O)[C@H](Cc2ccc(O)cc2)NC(=O)[C@H](CN)NC(=O)CSC[C@@H](C(=O)N[C@@H](C)C(N)=O)NC(=O)[C@H]([C@@H](C)O)NC(=O)[C@H](C(C)C)NC(=O)[C@H](CC(C)C)NC(=O)[C@H](CCN)NC(=O)[C@@H](CC(C)C)NC(=O)[C@H](CCCN)NC1=O [Compound 1056] ({CH2CO}-[Dap]YDWV[Bip]I[Orn][dL][Dab]LVTCA-NH2; thioether N-14) | 8.6 nM |
| CC[C@H](C)[C@@H]1NC(=O)[C@H](Cc2ccc(-c3ccccc3)cc2)NC(=O)[C@H](C(C)C)NC(=O)[C@H](Cc2c[nH]c3ccccc23)NC(=O)[C@H](CC(=O)O)NC(=O)[C@H](Cc2ccc(OCC(=O)O)cc2)NC(=O)[C@H](Cc2ccncc2)NC(=O)CSC[C@@H](C(=O)N[C@@H](C)C(N)=O)NC(=O)[C@H]([C@@H](C)O)NC(=O)[C@H](C(C)C)NC(=O)[C@H](CC(C)C)NC(=O)[C@H](CCN)NC(=O)[C@@H](CC(C)C)NC(=O)[C@H](CCCN)NC1=O [Compound 1057] ({CH2CO}-[4Pal]Y(Carboxymethyl)DWV[Bip]I[Orn][dL][Dab]LVTCA-NH2; thioether N-14) | 129 nM |
| CC(C)C[C@@H]1NC(=O)[C@H](Cc2c[nH]c3ccccc23)NC(=O)[C@H](CC(=O)O)NC(=O)[C@H](Cc2ccc(O)cc2)NC(=O)[C@H](Cc2ccccc2)NC(=O)CSC[C@@H](C(=O)N[C@@H](C)C(N)=O)NC(=O)[C@H]([C@@H](C)O)NC(=O)[C@H](C(C)C)NC(=O)[C@H](CC(C)C)NC(=O)[C@H](CC(N)=O)NC(=O)[C@@H](CC(C)C)NC(=O)[C@H](CCN)NC(=O)[C@H](C(C)C)NC(=O)[C@H](Cc2ccc(-c3ccccc3)cc2)NC1=O [Compound 1058] ({CH2CO}-FYDWL[Bip]V[Dab][dL]NLVTCA-NH2; thioether N-14) | 18.1 nM |
| CC(C)C[C@@H]1NC(=O)[C@H](Cc2c[nH]c3ccccc23)NC(=O)[C@H](CC(=O)O)NC(=O)[C@H](Cc2ccc(O)cc2)NC(=O)[C@H](Cc2ccccc2)NC(=O)CSC[C@@H](C(=O)NCC(N)=O)NC(=O)[C@H](CO)NC(=O)[C@H](C(C)C)NC(=O)[C@H](CC(C)C)NC(=O)[C@H](CC(N)=O)NC(=O)[C@@H](CC(C)C)NC(=O)[C@H](CCN)NC(=O)[C@H](C(C)C)NC(=O)[C@H](Cc2ccc(-c3ccccc3)cc2)NC1=O [Compound 1059] ({CH2CO}-FYDWL[Bip]V[Dab][dL]NLVSCG-NH2; thioether N-14) | 28.5 nM |
| CC(C)C[C@@H]1NC(=O)[C@H](Cc2c[nH]c3ccccc23)NC(=O)[C@H](CC(=O)O)NC(=O)[C@H](Cc2ccc(O)cc2)NC(=O)[C@H](Cc2ccccc2)NC(=O)CSC[C@@H](C(=O)NCC(N)=O)NC(=O)[C@H]([C@@H](C)O)NC(=O)[C@H](C(C)C)NC(=O)[C@H](CC(C)C)NC(=O)[C@H](CCN)NC(=O)[C@@H](CC(C)C)NC(=O)[C@H](CCN)NC(=O)[C@H](C(C)C)NC(=O)[C@H](Cc2ccc(-c3ccccc3)cc2)NC1=O [Compound 1060] ({CH2CO}-FYDWL[Bip]V[Dab][dL][Dab]LVTCG-NH2; thioether N-14) | 16.4 nM |
